The record followed here is patent US7419976B2, “Diazepanes derivatives useful as IFA inhibitors” (Novartis AG, priority 2003, dated 2008).

The test system of assay [1] is allergic contact dermatitis in mice. The experiment in a line: Test Example: inhibition of allergic contact dermatitis (ACD) in vivo, pinnal weight and MPO activity. As to conditions: oral single dose 0.01-10.0 mg/kg. The protocol: Groups of 8 female mice are sensitized epicutaneously with 50 μl of 2% oxazolone on the shaved ventral abdomen (day 1) and challenged with 10 μl of 0.2% oxazolone on the inner surface of the right ear (day 8). The unchallenged left ears serve as normal controls and dermatitis is evaluated from the difference in pinnal weight which is taken as a measure of inflammatory swelling (day 9). In addition, activity of myeloperoxidase (MPO) serving as a measure of leukocyte influx in ear homogenates are determined as described by Bradley et al., J. Invest. Dermatol; 78:206-209 (1982). The animals are treated orally 2 hours after challenge with the test compound of example 10. Activity is calculated as the percentage of inhibition of inflammatory auricular swelling and of MPO activity relative to animals treated with the vehicle alone. For comparison mice are treated intraperitoneally with 100 μl monoclonal anti-mouse LFA-1 antibody 1 hour before challenge and evaluated as described.

The target in another assay is T1, LFA-1/ICAM-1 (Homo sapiens, UniProt P20701).
T1 construct: endogenous in cells; ICAM-1-Cκ fusion: made in house in the baculovirus system
The experiment in a line: Cell free assay: binding of soluble human ICAM-1 to immobilized human LFA-1. As to conditions: immobilized human LFA-1, biotinylated ICAM-1, read-out: IC50, inhibition of adhesion of LFA-1 to ICAM-1. The protocol:
The assay determines the binding of soluble human ICAM-1 to immobilized human LFA-1. LFA-1 is purified from JY cells, a human lymphoblastoid B cell-line, by immunoaffinity chromatography analogously as described by Dustin et al., J. Immunol. 148, 2654-2663, 1992. ICAM-1 mouse Cκ fusion protein (ICAM-1) is produced using the baculovirus system as described by Weitz-Schmidt et al., Anal. Biochem. 238, 184-190, 1996. Purified LFA-1 is diluted 1:20 in phosphate buffered saline (PBS) containing 2 mM MgCl2, pH 7.4 and coated onto microtiter plates (Nunc) at 37° for 3 hours. Plates are blocked with 1% heat-treated bovine serum albumin in PBS for 2 hours at 37° followed by a washing step using PBS, 2 mM MgCl2, 1% fetal calf serum, pH 7.4 (assay buffer). Compounds of the present invention (10 mM solution in DMSO) are diluted in assay buffer and added to the plates. Biotinylated recombinant ICAM-1 in assay buffer (6 μg/ml) is added and allowed to bind at 37° for one hour. After incubation, wells are washed with assay buffer. Streptavidin-peroxidase diluted 1:5000 in assay buffer is added and incubated for 45 min at 37°. […] The reaction is stopped after 20 minutes and bound ICAM-1 is determined by measuring the optical density at 405 nm in a microplate reader.

In assay [2] the test system is allergic contact dermatitis in NMRI mice. The experiment in a line: Allergic contact dermatitis (ACD) in vivo test system, oxazolone, auricular weight. The following applies: p.o., 0.03 mg/kg, 2 hours after challenge. The protocol:
Groups of 8 female NMRI mice are sensitized on the shaved abdomen with 50 μl of oxazolone (2% in acetone) and challenged with 10 μl of 0.2% oxazolone on the inner surface of the right ear 7 days later. The unchallenged left ears serve as normal controls and dermatitis is evaluated from the individual differences in auricular weights, which are taken as a measure of inflammatory swelling 24 hours after the challenge. Dermatitis is evaluated in test- and control groups. The test groups are treated with the test compounds orally (2 hours after challenge), the controls are treated similarly with the vehicles alone. For oral administration the compounds are administered in an oil in H2O emulsion. The data of the test- and the vehicle-treated control groups are statistically analysed by ANOVA followed by Dunnet T-test (normal distribution or data) or by H and U-test, respectively. […] For example, compound of Example 14 has an inhibiting effect in this assay of >30% when administered p.o. at a dose of 0.03 mg/kg.

A value given as a limit tells only on which side of the number the result lay.

T1 sequence (P20701 26-1170): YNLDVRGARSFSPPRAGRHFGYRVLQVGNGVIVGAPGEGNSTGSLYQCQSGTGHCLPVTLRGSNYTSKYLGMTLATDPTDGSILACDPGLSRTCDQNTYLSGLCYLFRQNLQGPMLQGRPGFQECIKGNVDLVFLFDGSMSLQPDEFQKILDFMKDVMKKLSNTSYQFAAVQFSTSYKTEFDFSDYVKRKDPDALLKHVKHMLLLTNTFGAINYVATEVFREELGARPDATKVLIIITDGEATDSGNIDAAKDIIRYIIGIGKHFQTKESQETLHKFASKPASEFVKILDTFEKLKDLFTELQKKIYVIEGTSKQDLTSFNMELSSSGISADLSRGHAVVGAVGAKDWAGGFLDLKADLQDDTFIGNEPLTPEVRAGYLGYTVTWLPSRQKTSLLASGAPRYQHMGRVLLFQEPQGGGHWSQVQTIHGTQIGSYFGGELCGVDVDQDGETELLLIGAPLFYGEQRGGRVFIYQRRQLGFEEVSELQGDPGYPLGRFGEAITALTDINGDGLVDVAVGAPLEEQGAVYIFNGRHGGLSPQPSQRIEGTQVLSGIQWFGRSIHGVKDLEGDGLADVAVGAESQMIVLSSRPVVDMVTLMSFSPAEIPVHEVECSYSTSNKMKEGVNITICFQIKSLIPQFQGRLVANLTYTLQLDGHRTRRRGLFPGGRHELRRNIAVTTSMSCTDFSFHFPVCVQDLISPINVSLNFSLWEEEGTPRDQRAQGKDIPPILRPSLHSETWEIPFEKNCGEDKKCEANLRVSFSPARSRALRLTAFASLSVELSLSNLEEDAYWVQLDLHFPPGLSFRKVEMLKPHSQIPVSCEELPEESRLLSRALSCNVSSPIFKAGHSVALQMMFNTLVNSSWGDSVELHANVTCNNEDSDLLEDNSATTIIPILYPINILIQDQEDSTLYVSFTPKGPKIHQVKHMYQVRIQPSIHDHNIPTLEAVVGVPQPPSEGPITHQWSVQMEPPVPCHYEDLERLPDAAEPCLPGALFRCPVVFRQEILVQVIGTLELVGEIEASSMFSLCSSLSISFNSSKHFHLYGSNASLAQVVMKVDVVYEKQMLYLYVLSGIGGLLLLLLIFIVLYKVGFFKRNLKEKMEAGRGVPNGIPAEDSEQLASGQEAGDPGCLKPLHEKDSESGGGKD
T1 sequence (P05107 23-769 partner): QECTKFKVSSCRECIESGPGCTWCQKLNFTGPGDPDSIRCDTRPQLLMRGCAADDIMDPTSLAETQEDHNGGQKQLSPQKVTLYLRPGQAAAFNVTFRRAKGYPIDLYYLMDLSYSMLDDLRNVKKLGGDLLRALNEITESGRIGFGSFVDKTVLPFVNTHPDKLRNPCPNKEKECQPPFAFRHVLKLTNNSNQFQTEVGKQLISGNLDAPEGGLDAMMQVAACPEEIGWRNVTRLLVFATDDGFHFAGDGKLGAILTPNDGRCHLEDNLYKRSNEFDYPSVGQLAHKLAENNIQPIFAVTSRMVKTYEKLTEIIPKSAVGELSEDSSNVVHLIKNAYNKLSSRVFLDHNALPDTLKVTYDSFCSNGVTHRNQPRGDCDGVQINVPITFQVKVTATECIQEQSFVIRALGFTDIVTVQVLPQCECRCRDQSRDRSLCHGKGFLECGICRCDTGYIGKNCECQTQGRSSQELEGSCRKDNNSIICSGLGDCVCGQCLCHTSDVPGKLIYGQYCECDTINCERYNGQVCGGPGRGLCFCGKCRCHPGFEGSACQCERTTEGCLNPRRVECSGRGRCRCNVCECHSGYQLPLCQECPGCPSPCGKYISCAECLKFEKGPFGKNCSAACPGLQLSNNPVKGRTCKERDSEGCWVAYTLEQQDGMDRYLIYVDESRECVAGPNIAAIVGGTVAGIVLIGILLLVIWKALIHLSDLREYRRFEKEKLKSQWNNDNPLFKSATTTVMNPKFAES

On to `C[C@@H]1CCN([C@H](Cc2cccc3ccccc23)C(N)=O)C(=O)[C@H](c2ccc(F)c(Cl)c2)N1C(=O)Cc1ccc2ncccc2c1` [Example 10, (R)-2-[(3S,5R)-3-(3-Chloro-4-fluoro-phenyl)-5-methyl-2-oxo-4-(2-quinolin-6-yl-acetyl)-[1,4]diazepan-1-yl]-3-naphthalen-1-yl-propionamide], for which, in assay [1] (2 hours after challenge), the “inhibition of the inflammatory response” value was 40-50%. For the same compound, the “inhibition of MPO activity versus inhibition of swelling” value in assay [1] (ear homogenates) was “Inhibition of swelling compared with inhibition of MPO activity is observed”.

One may read the IC50 as the concentration at which inhibition is half-maximal. `CC1CCN(C(Cc2cccc3ccccc23)C(N)=O)C(=O)C(c2cccc(F)c2)N1C(=O)Cc1ccc2c(c1)OCO2` [Example 13, (R)-2-[4-(2-Benzo[1,3]dioxol-5-yl-acetyl)-3,5-cis-3-(3-fluoro-phenyl)-5-methyl-2-oxo-[1,4]diazepan-1-yl]-3-naphthalen-1-yl-propionamide]: the IC50 at LFA-1/ICAM-1 was found to be 430 nM.

Turning to `C[C@@H]1CCN([C@H](Cc2cccc3ccccc23)C(N)=O)C(=O)[C@H](c2cccc(Cl)c2)N1C(=O)Cc1ccc2c(c1)OCO2` [Example 14, (R)-2-[(3S,5R)-4-(2-Benzo[1,3]dioxol-5-yl-acetyl)-3-(3-chloro-phenyl)-5-methyl-2-oxo-[1,4]diazepan-1-yl]-3-naphthalen-1-yl-propionamide], on LFA-1/ICAM-1, the IC50 is 90 nM. Besides, the “inhibiting effect in allergic contact dermatitis (auricular swelling)” value in assay [2] is recorded as over 30%.
